The values below are quoted from earlier work in US6054456A, “Substituted piperazine derivatives” (Merck Sharp & Dohme Ltd., priority 1995, dated 2000).

In data set [1] the test system is human 5-HT1Dα and 5-HT1Dβ receptor subtypes. As to conditions: cf. WO-A-91/171174, Table 1.
The conditions of data set [2]: humans, therapeutic doses.

Each structure is given as a SMILES string.

As for `CNS(=O)(=O)Cc1ccc2[nH]cc(CCN(C)C)c2c1` [sumatriptan], in data set [1], the “discrimination between the human 5-HT1Dα and 5-HT1Dβ receptor subtypes” value is “barely discriminates between the human 5-HT1Dα and 5-HT1Dβ receptor subtypes”. Also, the adverse events entry in data set [2] is reported as “certain adverse cardiovascular events”.
